The source of these data is article PMC11229689, “In Vitro Selection of Macrocyclic L-α/D-α/β/γ-Hybrid Peptides Targeting IFN-γ/IFNGR1 Protein–Protein Interaction” (Journal of the American Chemical Society, 2024).

The target of data set [1] is T1, IFN-γ/IFNGR1 protein–protein interaction (Homo sapiens, UniProt P15260).
T1 construct: purchased ACROBiosystems
T1 sequence (P15260 18-245 limits assumed): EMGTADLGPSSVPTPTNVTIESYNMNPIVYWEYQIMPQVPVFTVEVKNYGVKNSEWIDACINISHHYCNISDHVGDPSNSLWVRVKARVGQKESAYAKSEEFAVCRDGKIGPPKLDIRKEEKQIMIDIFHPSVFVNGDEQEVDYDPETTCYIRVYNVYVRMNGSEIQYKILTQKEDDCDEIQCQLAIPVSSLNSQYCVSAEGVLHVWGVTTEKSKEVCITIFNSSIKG
Description: IFNGR1 inhibition assay using AlphaLISA. The following applies: four-parameter dose–response fit, n = 3. It counts as biochemical. The protocol: IFNGR1 inhibition assay using AlphaLISA
The inhibitory activity of peptides against IFN-γ/IFNGR1 protein–protein interaction (PPI) was determined by AlphaLISA.5 Peptides, proteins, and beads were diluted in AlphaLISA immunoassay buffer (PerkinElmer, AL000C). 3.6 μL of 5 nM Fc-tagged IFNGR1 and 3.6 μL of synthetic peptides were mixed in AlphaPlate-384 Shallow Well (PerkinElmer) and preincubated at 25 °C for 10 min. 3.6 μL of 15 nM biotin-tagged IFN-γ was then added to the mix and incubated at 25 °C for 20 min. 3.6 μL each human IgG acceptor beads (PerkinElmer) and streptavidin donor beads (PerkinElmer) were added to the above mix and incubated at 25 °C for 30 min in dark place. Emission at 615 nm was measured […]
by EnSpire Multimode Plate Reader (PerkinElmer). The fraction of bound IFN-γ/IFNGR1 was calculated by the intensity of emission in the presence of peptide divided by that in the absence of […]
peptide. […]
Puromycin. Normocin, Blasticidin, Zeocin, and Puromycin were excluded when conducting the experiments. To evaluate the cellular activity of peptides, peptide mixtures were added to 50,000 cells/well in a flat-bottom 96-well plate and pre-incubated for 30 min at 37 °C before stimulation.
Subsequently, 1 ng/mL of recombinant IFN-γ (InvivoGen) was added to each well in a final reaction volume of 200 μL, followed by incubation for 20 h at 37 °C. 20 μL of supernatants from the induced cells was added to 180 μL Q U A N T I-Blue TM solution (InvivoGen). After further incubation for 3 h at 37 °C, the expression levels of the secreted embryonic alkaline phosphatase (SEAP) were determined by reading the O.D. at 650 nm on a Tecan M1000 PRO microplate reader (Tecan Group) and normalized to the non-treated well. IC50 value was analyzed by a normalized dose-response curve fitting by using GraphPad Prism 9.
HEK-DualTM IFN-γ cells were used for the cell viability assay. 10,000 cells/well were added to each well in a flat-bottom 96-well plate. After 24 h, peptide mixtures were added to each well in a final volume of 100 μL. After further incubation for 24 h, 10 μL CCK-8 reagent (Dojindo) was added to […]
In general terms: In Alpha technology, singlet oxygen from a donor bead excites a nearby acceptor bead.

Data set [2] can be described thus: Serum stability assay (LC/MS). It counts as in vitro ADME, human. The following applies: human serum, 37 °C, LC/MS, relative to internal standard peptide, n = 3; for half-life: human, read-out: half-life in human serum (t1/2) (converted). The protocol: (§1) Binding affinities of IA1 and IA2 against IFNGR1 were evaluated by surface plasmon resonance (SPR) (Table 1 and SI Figure S6A). […] To investigate the contribution of the N-terminal [yVPβ^1RR] motif and β^1 residue in IA1, three scrambled peptides IA1s1–3 and a variant IA1β^14A were synthesized and evaluated. […] We next evaluated inhibitory activities of IA1 and IA2 against the ligand–receptor PPI between IFN-γ and IFNGR1 using AlphaLISA (Table 1 and SI Figure S7).[37] […] We also determined the serum half-lives of IA1 and IA2, considering peptidase resistance as an important factor for therapeutic peptides.[24] A sample peptide and a peptidase-resistant internal standard peptide were coincubated in human serum at 37 °C, and the relative amount of the remaining sample peptide was estimated by LC/MS. […]
10–200 μM synthetic peptide and 5 μM serum-resistant internal standard peptide consisting only of D-amino acids (NH2-PEG5-wstndwstnd-PEG5-CONH2)3 were mixed and incubated in human serum (Cosmo Bio, 12181201) at 37 °C for up to 120 h. At each time point, 4 μL of the mixture was removed and quenched by adding 12 μl methanol. Following centrifugation (15,000 g, 4 °C, 5 min), 10 μL of the supernatant was mixed with 40 μl of 1% (v/v) TFA. Following centrifugation (15,000 g, 4 °C, 5 min), the supernatant was collected for LC/MS analysis, which used a reverse-phase column (ACQUITY UPLC BEH C18, 1.7 μm, 2.1 × 150 mm; Waters) and a Xevo G2-XS QTof system (Waters) with a linear gradient from 1% B to 61% B. Buffer A was water with 0.1% (v/v) formic acid; buffer B was acetonitrile with 0.1% (v/v) formic acid. The percentages of remaining peptides were determined by the peak area integration of the chromatograms. For tandem mass spectrometry, MS/MS spectra were acquired with a 0.2 s scan time, with 10−30 eV collision energy. The obtained LC/MS data was analyzed using MassLynx 4.1 (Waters). […]

The target of the next data set is T2, Fc-tagged human IFNGR1 (Homo sapiens, UniProt P15260).
T2 construct: purchased ACROBiosystems
T2 sequence (P15260 18-489): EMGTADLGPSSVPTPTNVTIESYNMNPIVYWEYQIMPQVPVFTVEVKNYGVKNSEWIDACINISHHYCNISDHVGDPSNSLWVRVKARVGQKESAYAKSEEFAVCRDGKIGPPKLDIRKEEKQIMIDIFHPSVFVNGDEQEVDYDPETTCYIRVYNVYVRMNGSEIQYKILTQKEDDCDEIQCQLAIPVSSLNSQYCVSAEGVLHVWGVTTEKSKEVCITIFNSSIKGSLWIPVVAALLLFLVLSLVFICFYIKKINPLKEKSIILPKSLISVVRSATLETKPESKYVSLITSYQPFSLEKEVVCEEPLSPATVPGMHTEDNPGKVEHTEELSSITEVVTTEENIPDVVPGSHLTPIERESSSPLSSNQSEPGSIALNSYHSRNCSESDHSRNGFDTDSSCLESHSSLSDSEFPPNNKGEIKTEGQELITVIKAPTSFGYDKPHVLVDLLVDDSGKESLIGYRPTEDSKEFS
Description: Binding kinetics and affinity to IFNGR1 by surface plasmon resonance (SPR). The following applies: SPR, 25 °C, 1:1 binding model; for Kd: read-out: KD; for kon: single-cycle kinetics, read-out: ka. As to the method: as §1
Evaluation of binding affinity of peptides by surface plasmon resonance The binding affinities of selected peptides and IFNGR1 were analyzed by surface plasmon resonance (SPR) using a Biacore T200 instrument (Cytiva) at 25 °C with the following running buffer: 10 mM Tris-HCl (pH 8.0), 150 mM NaCl, 0.05% (v/v) Tween 20 , and 0.1% (v/v) DMSO. Fc-tagged IFNGR1 was immobilized on a series S sensor chip protein G (Cytiva) to a surface density of 1,200–1,600 response units following the immobilization protocols provided by Cytiva. The kinetic constants were determined by a single-cycle kinetics method by the injection of five different concentrations (twofold dilution series) of each peptide at a flow rate of 30 μL/min. The resulting sensorgrams were fitted to the standard 1:1 interaction model and analyzed using Biacore evaluation software. […]
A general note: Surface plasmon resonance follows binding to a sensor surface in real time, without labels.

*1 amine or outer side, *2 acyl side, *3 side chain or, on linkers, in order; H or OH if unused. Where a SMILES comes first, the peptide text is derived from it. Bridges are numbered along the chain shown (N, C = ends). [ ]: non-standard residue; d: D form. Acbc(trans-1,3) = O=C([C@H]1C[C@H](N[*:1])C1)[*:2]; Acbc(cis-1,3) = O=C([C@H]1C[C@@H](N[*:1])C1)[*:2]; X1 = O=C([C@@H]1CCC[C@@H]1N[*:1])[*:2]

For the compound `CC(C)[C@@H]1NC(=O)[C@@H](Cc2ccc(O)cc2)NC(=O)CSC[C@H](C(N)=O)NC(=O)[C@H](CCCNC(=N)N)NC(=O)[C@H](CO)NC(=O)[C@H](CCCNC(=N)N)NC(=O)[C@H](Cc2c[nH]cn2)NC(=O)CNC(=O)[C@H]2C[C@@H](C2)NC(=O)[C@H](Cc2c[nH]cn2)NC(=O)[C@H](CC(N)=O)NC(=O)[C@H](CCCNC(=N)N)NC(=O)[C@H](CCCNC(=N)N)NC(=O)[C@@H]2CCC[C@@H]2NC(=O)[C@H](C)NC1=O` [IB1γ^19γ^2, ^AcyVAβ^1RRNHγ^2GHRSRc-NH2] ({CH2CO}-[dY]VA[X1]RRNH[Acbc(trans-1,3)]GHRSR[dC]-NH2; thioether N-15), in data set [1], the half-inhibitory concentration (IC50) (commonly the concentration at which inhibition is half-maximal) was determined as 550 ± 30 nM. In addition, in data set [2], the half-life was 0.77 ± 0.02 h. Moreover, at Fc-tagged human IFNGR1, the equilibrium dissociation constant (Kd) (in general, the concentration at which binding is half-saturated) worked out at 47 ± 15 nM and the kon was determined as 250000 ± 250000 M⁻¹ s⁻¹.

Compound `CC(C)[C@@H]1NC(=O)[C@@H](Cc2ccc(O)cc2)NC(=O)CSC[C@H](C(N)=O)NC(=O)[C@H](CC(N)=O)NC(=O)[C@H](Cc2c[nH]cn2)NC(=O)[C@H](CCCNC(=N)N)NC(=O)[C@H](C)NC(=O)[C@H]([C@@H](C)O)NC(=O)[C@H](Cc2c[nH]cn2)NC(=O)[C@@H]2CCCN2C(=O)[C@H](CO)NC(=O)[C@H](CCCNC(=N)N)NC(=O)[C@H](CCCNC(=N)N)NC(=O)[C@@H]2CCC[C@@H]2NC(=O)[C@@H]2CCCN2C1=O` [IB5γ^211A, ^AcyVPβ^1RRSPHTA RHNc-NH2] ({CH2CO}-[dY]VP[X1]RRSPHTARHN[dC]-NH2; thioether N-15) displayed a 50% inhibitory concentration (IC50) in data set [1] of 14 ± 1 nM. The half-life in data set [2] was 1.8 ± 0.6 h. At Fc-tagged human IFNGR1, the equilibrium dissociation constant (Kd) was found to be 28 ± 6 nM and the kon is 92000 ± 27000 M⁻¹ s⁻¹.

Turning to `CC(C)[C@@H]1NC(=O)[C@@H](Cc2ccc(O)cc2)NC(=O)CSC[C@H](C(N)=O)NC(=O)[C@H](C)NC(=O)[C@H](Cc2c[nH]cn2)NC(=O)[C@H](CCCNC(=N)N)NC(=O)[C@H](CCCNC(=N)N)NC(=O)CNC(=O)[C@H]2C[C@H](C2)NC(=O)[C@H](Cc2c[nH]cn2)NC(=O)[C@H](CC(N)=O)NC(=O)[C@H](CCCNC(=N)N)NC(=O)[C@H](CCCNC(=N)N)NC(=O)[C@@H]2CCC[C@@H]2NC(=O)[C@H](C)NC1=O` [IB2, ^AcyVAβ^1RRNHγ^1GRRHAc-NH2] ({CH2CO}-[dY]VA[X1]RRNH[Acbc(cis-1,3)]GRRHA[dC]-NH2; thioether N-15), the IC50 in data set [1] was 79 ± 11 nM. Moreover, in data set [2], the “half-life in human serum (t1/2)” value amounted to 1.3 ± 0.1 h and the half-life was less than 1.3 h. On Fc-tagged human IFNGR1, the Kd amounted to 31 ± 8 nM and the kon stood at 200000 ± 90000 M⁻¹ s⁻¹.

Consider `CC(C)[C@@H]1NC(=O)[C@@H](Cc2ccc(O)cc2)NC(=O)CSC[C@H](C(N)=O)NC(=O)[C@H](CCCNC(=N)N)NC(=O)[C@H](CO)NC(=O)[C@H](CCCNC(=N)N)NC(=O)[C@H](Cc2c[nH]cn2)NC(=O)CNC(=O)[C@H](C)NC(=O)[C@H](Cc2c[nH]cn2)NC(=O)[C@H](CC(N)=O)NC(=O)[C@H](CCCNC(=N)N)NC(=O)[C@H](CCCNC(=N)N)NC(=O)[C@@H]2CCC[C@@H]2NC(=O)[C@H](C)NC1=O` [IB1γ^19A, ^AcyVAβ^1RRNHA GHRSRc-NH2] ({CH2CO}-[dY]VA[X1]RRNHAGHRSR[dC]-NH2; thioether N-15), for which the half-inhibitory concentration (IC50) in data set [1] worked out at 11 ± 4 nM. The half-life in data set [2] was 0.17 ± 0.01 h. On Fc-tagged human IFNGR1, the equilibrium dissociation constant (Kd) is 9.5 ± 4 nM and the kon came out at 110000 ± 20000 M⁻¹ s⁻¹.

On to `CC(C)[C@@H]1NC(=O)[C@@H](Cc2ccc(O)cc2)NC(=O)CSC[C@H](C(N)=O)NC(=O)[C@H](CCCNC(=N)N)NC(=O)[C@H](CO)NC(=O)[C@H](CCCNC(=N)N)NC(=O)[C@H](Cc2c[nH]cn2)NC(=O)CNC(=O)[C@H]2C[C@H](C2)NC(=O)[C@H](Cc2c[nH]cn2)NC(=O)[C@H](CC(N)=O)NC(=O)[C@H](CCCNC(=N)N)NC(=O)[C@H](CCCNC(=N)N)NC(=O)[C@H](C)NC(=O)[C@H](C)NC1=O` [IB1β^14A, ^AcyVAA RRNHγ^1GHRSRc-NH2] ({CH2CO}-[dY]VAARRNH[Acbc(cis-1,3)]GHRSR[dC]-NH2; thioether N-15), for which, in data set [1], the IC50 is greater than 100000 nM. Further, at Fc-tagged human IFNGR1, the Kd is greater than 10000 nM.

The compound `CC(C)[C@@H]1NC(=O)[C@@H](Cc2ccc(O)cc2)NC(=O)CSC[C@H](C(N)=O)NC(=O)[C@H](CC(N)=O)NC(=O)[C@H](Cc2c[nH]cn2)NC(=O)[C@H](CCCNC(=N)N)NC(=O)[C@H]2C[C@@H](C2)NC(=O)[C@H]([C@@H](C)O)NC(=O)[C@H](Cc2c[nH]cn2)NC(=O)[C@@H]2CCCN2C(=O)[C@H](CO)NC(=O)[C@H](CCCNC(=N)N)NC(=O)[C@H](CCCNC(=N)N)NC(=O)[C@@H]2CCC[C@@H]2NC(=O)[C@@H]2CCCN2C1=O` [IB5, ^AcyVPβ^1RRSPHTγ^2RHNc-NH2] ({CH2CO}-[dY]VP[X1]RRSPHT[Acbc(trans-1,3)]RHN[dC]-NH2; thioether N-15) came in with a half-maximal inhibitory concentration (IC50) in data set [1] of 220 ± 10 nM. Further, at Fc-tagged human IFNGR1, the dissociation constant Kd was 130 ± 20 nM and the kon turned out to be 17000 ± 5000 M⁻¹ s⁻¹.
